{
  "source": "paper PMC9613624",
  "about": "(Journal of medicinal chemistry, 2022)",
  "key": {"AKT [1]": {"system": "AKT", "assay": "Western blotting of T-AKT in SW620 cells", "assay_type": "cell-based", "details": "for effect on AKT protein levels at high concentrations (in words): concentrations up to 10 μM"}, "AKT [2]": {"system": "AKT", "assay": "Western blotting of T-AKT in Mia PaCa-2 cells", "assay_type": "cell-based", "details": "Mia PaCa-2 cells (KRAS mutant), Figure S2A"}, "AKT1 [3]": {"molecular_target": "T1, AKT1 (Homo sapiens, UniProt P31749)", "T1 sequence (P31749 whole entry, canonical isoform)": "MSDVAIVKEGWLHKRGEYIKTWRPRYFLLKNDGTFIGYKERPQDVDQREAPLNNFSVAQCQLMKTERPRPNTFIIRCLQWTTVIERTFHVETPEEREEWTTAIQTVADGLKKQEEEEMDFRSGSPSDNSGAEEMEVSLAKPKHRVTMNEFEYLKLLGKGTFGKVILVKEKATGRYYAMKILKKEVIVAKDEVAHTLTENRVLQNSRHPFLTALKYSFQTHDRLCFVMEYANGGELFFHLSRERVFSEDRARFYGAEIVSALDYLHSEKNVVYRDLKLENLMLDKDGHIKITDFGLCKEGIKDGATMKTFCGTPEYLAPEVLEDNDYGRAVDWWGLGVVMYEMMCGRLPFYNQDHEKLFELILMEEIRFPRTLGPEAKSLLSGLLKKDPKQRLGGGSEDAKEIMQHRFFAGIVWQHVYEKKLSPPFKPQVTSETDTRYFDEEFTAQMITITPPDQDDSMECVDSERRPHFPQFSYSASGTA", "assay": "Western blotting of AKT isoforms in SW620 cells", "assay_type": "cell-based", "details": "Figure S3"}, "AKT2 [4]": {"molecular_target": "T2, AKT2 (Homo sapiens, UniProt P31751)", "T2 sequence (P31751 whole entry, canonical isoform)": "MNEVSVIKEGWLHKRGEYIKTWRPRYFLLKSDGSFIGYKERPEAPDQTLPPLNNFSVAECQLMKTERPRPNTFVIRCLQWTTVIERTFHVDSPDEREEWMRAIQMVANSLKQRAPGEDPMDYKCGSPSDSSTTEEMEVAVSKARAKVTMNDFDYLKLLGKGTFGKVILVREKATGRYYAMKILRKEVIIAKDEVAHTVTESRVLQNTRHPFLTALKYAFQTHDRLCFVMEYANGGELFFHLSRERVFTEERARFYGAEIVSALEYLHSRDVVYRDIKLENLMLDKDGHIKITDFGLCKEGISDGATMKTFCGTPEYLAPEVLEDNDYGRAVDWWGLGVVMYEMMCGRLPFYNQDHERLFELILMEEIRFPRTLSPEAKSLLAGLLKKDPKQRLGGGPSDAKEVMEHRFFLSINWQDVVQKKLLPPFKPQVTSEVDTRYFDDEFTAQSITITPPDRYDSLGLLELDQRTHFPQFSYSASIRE", "assay": "Western blotting of AKT isoforms in SW620 cells", "assay_type": "cell-based", "details": "Figure S3"}, "AKT [5]": {"system": "AKT", "assay": "Western blotting of T-AKT in Colo205 cells", "assay_type": "cell-based", "details": "Colo205 cells (BRAF mutant), 1 μM, 24 h"}, "AKT [6]": {"system": "AKT", "assay": "Western blotting of T-AKT in HT-29 cells", "assay_type": "cell-based", "details": "HT-29 cells (BRAF mutant), 1 μM, 24 h"}, "AKT [7]": {"system": "AKT", "assay": "Western blotting of T-AKT in SKMEL 239 cells", "assay_type": "cell-based", "details": "SKMEL 239 cells (BRAF mutant), 1 μM, 24 h"}, "AKT [8]": {"system": "AKT", "assay": "Western blotting of T-AKT in PANC-1 cells", "assay_type": "cell-based", "details": "24 h"}, "AKT1 [9]": {"molecular_target": "T1, AKT1", "assay": "Global TMT MS-based quantitative proteomic study in SW620 cells", "assay_type": "cell-based", "details": "1 μM, 18 h, approximately 6433 proteins detected"}, "AKT2 [10]": {"molecular_target": "T2, AKT2", "assay": "Global TMT MS-based quantitative proteomic study in SW620 cells", "assay_type": "cell-based", "details": "1 μM, 18 h, 62 compared to 63"}, "SW620 cells [11]": {"system": "SW620 cells", "assay": "Cell death monitoring with DRAQ7 in SW620 cells", "assay_type": "cell-based", "details": "5 μM, DRAQ7, 0-72 h"}, "SW620 cells [12]": {"system": "SW620 cells", "assay": "Colony formation assay in SW620 cells", "assay_type": "cell-based", "details": "2 weeks, crystal violet"}, "[13]": {"assay": "Mouse pharmacokinetic study", "assay_type": "in vivo, male Swiss Albino mice", "details": "mice, single IP dose 75 mg/kg"}, "P-PRAS40": {"system": "P-PRAS40", "assay": "Western blotting of P-PRAS40 in SW620 cells", "details": "1 μM, 18 h, Figure S4"}, "AKT1 [14]": {"molecular_target": "T1, AKT1", "assay": "AKT activity inhibition assay", "assay_type": "biochemical", "details": "10 μM ATP"}, "AKT2 [15]": {"molecular_target": "T2, AKT2", "assay": "AKT activity inhibition assay", "assay_type": "biochemical", "details": "10 μM ATP"}, "AKT3": {"molecular_target": "AKT3 (Homo sapiens, UniProt Q9Y243)", "sequence (Q9Y243 whole entry)": "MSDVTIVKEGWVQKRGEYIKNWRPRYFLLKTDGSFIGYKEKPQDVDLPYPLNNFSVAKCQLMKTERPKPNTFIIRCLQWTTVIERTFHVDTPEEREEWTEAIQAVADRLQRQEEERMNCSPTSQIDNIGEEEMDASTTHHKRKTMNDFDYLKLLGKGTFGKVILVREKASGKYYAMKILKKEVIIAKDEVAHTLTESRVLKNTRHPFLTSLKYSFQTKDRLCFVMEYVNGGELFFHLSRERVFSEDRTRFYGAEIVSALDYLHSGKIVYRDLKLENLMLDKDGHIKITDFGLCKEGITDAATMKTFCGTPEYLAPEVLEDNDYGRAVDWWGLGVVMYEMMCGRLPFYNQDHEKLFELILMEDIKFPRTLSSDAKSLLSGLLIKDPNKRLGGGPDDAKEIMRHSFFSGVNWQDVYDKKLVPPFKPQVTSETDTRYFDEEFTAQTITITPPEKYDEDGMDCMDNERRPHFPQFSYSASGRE", "assay": "AKT activity inhibition assay", "assay_type": "biochemical", "details": "10 μM ATP"}, "SW620 cells [16]": {"system": "SW620 cells", "assay": "Cell proliferation assay", "assay_type": "cell-based", "details": "5 days, IncuCyte"}},
  "note": "Entries after “also recorded” stand apart in the source; their conditions may differ.",
  "data": [
    {"molecule": "Cc1ncsc1-c1ccc([C@H](C)NC(=O)[C@@H]2C[C@@H](O)CN2C(=O)[C@@H](NC(=O)CCCCCCCCCCNC(=O)CCc2cccc(-c3ccc4nc(-c5cccnc5N)n(-c5ccc(C6(N)CCC6)cc5)c4n3)c2)C(C)(C)C)cc1", "note": "[Compound 62, (2S,4R)-1-((S)-2-(11-(3-(3-(3-(4-(1-Aminocyclobutyl)phenyl)-2-(2-aminopyridin-3-yl)-3H-imidazo[4,5-b]pyridin-5-yl)phenyl)propanamido)undecanamido)-3,3-dimethylbutanoyl)-4-hydroxy-N-((S)-1-(4-(4-methylthiazol-5-yl)phenyl)ethyl)pyrrolidine-2-carboxamide]", "values": [
      {"measurement": "T-AKT degradation (western blot, in words)", "setting": "AKT [1]; SW620 cells (KRAS mutant), Figure S2", "result": "effectively and completely depleted T-AKT; also recorded: much more effective than MS21"},
      {"measurement": "T-AKT degradation (in words)", "setting": "AKT [1]; SW620 cells, 30 nM, 24 h", "result": "substantial T-AKT depletion"},
      {"measurement": "T-AKT degradation (in words)", "setting": "AKT [1]; SW620 cells, 100 nM, 24 h", "result": "nearly complete AKT degradation"},
      {"measurement": "T-AKT level (western blot verification for proteomics, in words)", "setting": "AKT [1]; SW620 cells, 1 μM, 18 h, Figure S4", "result": "significantly reduced"},
      {"measurement": "T-AKT degradation in time-course study (in words)", "setting": "AKT [1]; SW620 cells, 1 μM, at 4 h", "result": "Significant AKT degradation"},
      {"measurement": "T-AKT degradation in time-course study (in words)", "setting": "AKT [1]; SW620 cells, 1 μM, at 12 h, maintained for at least another 12 h", "result": "Near complete AKT degradation"},
      {"measurement": "T-AKT protein level in time-course study (in words)", "setting": "AKT [1]; SW620 cells, 1 μM, up to 24 h", "result": "time-dependently reduced T-AKT protein levels"},
      {"measurement": "effect on AKT protein levels at high concentrations (in words)", "setting": "AKT [1]; SW620 cells, 24 h", "result": "no “hooker effect” was observed"},
      {"measurement": "DC50", "setting": "AKT [1]; read-out: DC50, T-AKT degradation, SW620 cells, 24 h, western blot", "result": "23 ± 16", "unit": "nM"},
      {"measurement": "T-AKT degradation (western blot, in words)", "setting": "AKT [2]", "result": "modestly induced AKT degradation"},
      {"measurement": "AKT1 degradation (western blot, in words)", "setting": "AKT1 [3]", "result": "potently induced"},
      {"measurement": "AKT2 degradation (western blot, in words)", "setting": "AKT2 [4]", "result": "potently induced"},
      {"measurement": "T-AKT degradation (in words)", "setting": "AKT [5]", "result": "more effective than MS21"},
      {"measurement": "T-AKT degradation (in words)", "setting": "AKT [6]", "result": "more effective than MS21"},
      {"measurement": "T-AKT degradation (in words)", "setting": "AKT [7]", "result": "more effective than MS21"},
      {"measurement": "T-AKT degradation (in words)", "setting": "AKT [8]; PANC-1 cells (KRAS mutant), 1 μM", "result": "near-complete AKT degradation"},
      {"measurement": "T-AKT degradation (in words)", "setting": "AKT [8]; PANC-1 cells, 100 nM", "result": "complete degradation"},
      {"measurement": "T-AKT degradation at high concentrations (in words)", "setting": "AKT [8]; PANC-1 cells, concentrations up to 10 μM", "result": "no “hooker effect” was observed"},
      {"measurement": "AKT1 protein level in TMT proteomics (in words)", "setting": "AKT1 [9]", "result": "reduced significantly"},
      {"measurement": "proteome-wide degradation selectivity (in words)", "setting": "AKT1 [9]", "result": "generally selective AKT degrader"},
      {"measurement": "AKT2 protein level in TMT proteomics (in words)", "setting": "AKT2 [10]", "result": "also reduced"},
      {"measurement": "induction of cell apoptosis / percent cell death (in words)", "setting": "SW620 cells [11]", "result": "most effectively"},
      {"measurement": "inhibition of colony formation (in words)", "setting": "SW620 cells [12]", "result": "significantly inhibited colony formation"},
      {"measurement": "clinical signs during the PK study", "setting": "[13]", "result": "No clinical signs were observed"},
      {"measurement": "plasma concentrations", "setting": "[13]; maintained for at least 12 h", "result": "above 100 nM"},
      {"measurement": "P-PRAS40 inhibition (western blot verification for proteomics, in words)", "setting": "P-PRAS40", "result": "inhibited"}
    ]},
    {"molecule": "Cc1ncsc1-c1ccc([C@H](C)NC(=O)[C@H]2C[C@H](OCc3ccccc3)CN2C(=O)[C@@H](NC(=O)CCCCCCCCCCNC(=O)CCc2cccc(-c3ccc4nc(-c5cccnc5N)n(-c5ccc(C6(N)CCC6)cc5)c4n3)c2)C(C)(C)C)cc1", "note": "[Compound 64, (2R,4S)-1-((S)-2-(11-(3-(3-(3-(4-(1-Aminocyclobutyl)phenyl)-2-(2-aminopyridin-3-yl)-3H-imidazo[4,5-b]pyridin-5-yl)phenyl)propanamido)undecanamido)-3,3-dimethylbutanoyl)-4-(benzyloxy)-N-((S)-1-(4-(4-methylthiazol-5-yl)phenyl)ethyl)pyrrolidine-2-carboxamide]", "values": [
      {"measurement": "decrease of AKT1 inhibition potency compared to 62", "setting": "AKT1 [14]", "result": 1.5, "unit": "fold"},
      {"measurement": "decrease of AKT2 inhibition potency compared to 62", "setting": "AKT2 [15]", "result": 6, "unit": "fold"},
      {"measurement": "decrease of AKT3 inhibition potency compared to 62", "setting": "AKT3", "result": 3.6, "unit": "fold"},
      {"measurement": "effect on AKT protein levels at high concentrations (in words)", "setting": "AKT [1]; SW620 cells, 24 h", "result": "no effect"},
      {"measurement": "cell growth inhibition (in words)", "setting": "SW620 cells [16]", "result": "inactive"}
    ]}
  ]
}
